Measurements published in patent US20100129800A1, “POLYMERS AND THEIR USE AS FLUORESCENT LABELS” (priority 2007, published 2010).
Like-named read-outs stand apart in the source and are kept apart here.

Assay: Fluorescence properties of the new compounds (excitation and emission wavelengths)
Format: physicochemical

Fluorescence Excitation (nm) (free compound) | Fluorescence emission (nm) (free compound) | Structure (SMILES) | Fluorescence Excitation (nm) | Fluorescence emission (nm)
346 | 402 | CC(O)C(CO)NC(=O)c1c2ccccc2nc2c1[nH]c1ccccc12 (centres unmarked) [Compound 2a, N-(1,3-dihydroxybutan-2-yl)-10H-indolo[3,2-d]quinoline-11-carboxamide] | – | –
358 | 439 | CC(O)C(CO)NC(=O)c1c2ccccc2nc2ccccc12 (centres unmarked) [Compound 2b, N-(1,3-dihydroxybutan-2-yl)acridine-9-carboxamide] | – | –
247 | 440 | CC(O)C(CO)NC(=O)CNC(=O)c1c2ccccc2nc2ccccc12 (centres unmarked) [Compound 2d, N-((1,3-dihydroxybutan-2-ylcarbamoyl)methyl)acridine-9-carboxamide] | – | –
326 | 377 | C[C@@H](O)[C@H](CO)NC(=O)c1cc(-c2ccccc2)nc2ccccc12 [Compound 2e, N-((2S, 3R)-1,3-dihydroxybutan-2-yl)-2-phenylquinoline-4-carboxamide] | – | –
261 | 456 | C[C@@H](O)[C@H](CO)NC(=O)CN1c2ccccc2C=C2C3C=CC=CC3=NC21 (stereo partly drawn) [Compound 2f, N-((2S, 3R)-1,3-dihydroxybutan-2-yl)-(4a, 10a-dihydro-10,11-diazabenzo[b]fluoren-10-yl)acetamide] | – | –
433 | – | OC[C@H](O)CNc1c2ccccc2nc2ccccc12 [Compound 5a, (R)-3-(Acridin-9-ylamino)propane-1,2-diol] | – | –
340 | 469 | Cn1c2c3ccccc3nc-2c(NC[C@H](O)CO)c2ccccc21 [Compound 5b, (S)-3-(5-Methyl-5H-indolo[3,2b]quinolin-11-ylamino)propane-1,2-diol] | – | –

Further lines, the compound ahead of its results:

Structure (SMILES) | Fluorescence Excitation (nm) (free compound) | Fluorescence emission (nm) (free compound) | Fluorescence Excitation (nm) | Fluorescence emission (nm)
CC(O)C(COP(=O)(O)OC(C)C(CO)NC(=O)c1c2ccccc2nc2c1[nH]c1ccccc12)NC(=O)c1c2ccccc2nc2c1[nH]c1ccccc12 (centres unmarked) [Example 28, O-{2-N-(10H-indolo[3,2-d]quinoline-11-carbamoyl)-(1-hydroxybut-3-yl)} and O-(2-N-{10H-indolo[3,2-d]quinoline-11-carbamoyl}-3-hydroxybut-1-yl)phosphate] | 346 | 495 | – | –
CC(OP(=O)(O)OCC(O)CNc1c2nc3ccccc3c-2n(C)c2ccccc12)C(CO)NC(=O)c1c2ccccc2nc2ccccc12 [Example 31, O-{2-N-(Acridine-9-carbamoyl)-(1-hydroxybut-3-yl)} and O-{3-(5-methyl-5H-indolo[3,2b]quinolin-11-ylamino-(S)-(2-hydroxyprop-3-yl} phosphate] | 353 | 441 | – | –
CC(OP(O)(=S)OC[C@@H](O)CNc1c2nc3ccccc3c-2n(C)c2ccccc12)C(CO)NC(=O)c1c2ccccc2nc2ccccc12 (stereo partly drawn) [Example 32, O-{2-N-(Acridine-9-carbamoyl)-(1-hydroxybut-3-yl)} and O-}3-(5-methyl-5H-indolo[3,2b]quinolin-11-ylamino-(S)-(2-hydroxyprop-3-yl} phosphorotioate] | 359 | 448 | – | –
NC(=O)CCCOP(=O)(O)O[C@H](CNc1c2ccccc2nc2ccccc12)COP(=O)(O)O[C@@H](CO)CNc1c2ccccc2nc2ccccc12 [Example 33, O-[(R)-3-(Acridin-9-ylamino)-1-hydroxy-propane-2-yl]-phosphate (2-1) O-{2-N-(acridine-9-ylamino)-2-oxyprop-1-yl} phosphate(2-4) 4-hydroxybutirame] | 359 | 440 | – | –
CC(O)C(COP(=O)(O)OC(C)C(CO)NC(=O)c1cc(-c2ccccc2)nc2ccccc12)NC(=O)c1c2ccccc2nc2ccccc12 (centres unmarked) [Example 34, O-{2-N-(2-phenylquinoline-4-carbamoyl-1-hydroxybutan-3-yl)} and O-{2-N-(acridine-9-carbamoyl)-3-hydroxybut-1-yl} phosphate] | 252 | 437 | – | –
CC(O)C(COP(=O)(O)OC(C)C(CO)NC(=O)c1cc(-c2ccccc2)nc2ccccc12)NC(=O)c1cc(-c2ccccc2)nc2ccccc12 (centres unmarked) [Example 35, O-{2-N-(2-phenylquinoline-4-carbamoyl-1-hydroxybutan-3-yl)} and O-{2-N-(2-phenylquinoline-4-carbamoyl-3-hydroxybutan-1-yl)} phosphate] | 330 | 395 | – | –
CC(O)C(COP(=O)(O)OC(C)C(CO)NC(=O)c1c2ccccc2nc2ccccc12)NC(=O)c1cc(-c2ccccc2)nc2ccccc12 (centres unmarked) [Example 36, O-{2-N-(acridine-9-carbamoyl)-1-hydroxybut-3-yl} and O-{2-N-(2-phenylquinoline-4-carbamoyl-3-hydroxybutan-1-yl)} phosphate] | 252 | 403 | – | –
CC(O)C(COP(=O)(O)OC(C)C(CO)NC(=O)c1cc(-c2ccccc2)nc2ccccc12)NC(=O)c1c2ccccc2nc2c1[nH]c1ccccc12 (centres unmarked) [Example 37, O-{2-N-(2-phenylquinoline-4-carbamoyl-1-hydroxybutan-3-yl)} and O-(2-N-{10H-indolo[3,2-d]quinoline-11-carbamoyl}-3-hydroxybut-1-yl)] | – | – | 342 | 492
CC(O)C(COP(=O)(O)OC(C)C(COP(=O)(O)OC(C)C(CO)NC(=O)c1c2ccccc2nc2ccccc12)NC(=O)c1c2ccccc2nc2c1[nH]c1ccccc12)NC(=O)CNC(=O)c1c2ccccc2nc2ccccc12 (centres unmarked) [Example 38, O-{2-N-(Acridine-9-carbamoyl)-(1-hydroxybut-3-yl)} phosphate (3-1) O-{2-N-(10H-indolo[3,2-d]quinoline-11-carbamoyl)-3-oxybut-1-yl} phosphate (3-1) O-{2-N-(acridine-9-carboxamido)acetamidol-(3-hydroxybut-1-yl)}] | 359 | 438 | – | –
CC(OP(=O)(O)OCC(O)CNc1c2nc3ccccc3c-2n(C)c2ccccc12)C(CO)NC(=O)c1c2ccccc2nc2c1[nH]c1ccccc12 [Example 41, O-{2-N-(10H-indolo[3,2-d]quinoline-11-carbamoyl)-3-oxybut-1-yl} phosphate (3-1) O-{3-(5-methyl-5H-indolo[3,2-b]quinolin-11-ylamino-(S)-(2hydroxylprop-3-yl)] | 275 | 476 | – | –
CC(O)C(COP(=O)(O)OC(C)C(COP(=O)(O)OC(C)C(CO)NC(=O)c1c2ccccc2nc2ccccc12)NC(=O)c1c2ccccc2nc2ccccc12)NC(=O)c1c2ccccc2nc2ccccc12 (centres unmarked) [Example 43, O-{2-N-(Acridine-9-carbamoyl)-(1-hydroxybut-3-yl)} phosphate (3-1) O-{2-N-(acridine-9-carbamoyl)-(1-hydroxybut-3-yl)} phosphate (3-1) O-{2-N-(acridine-9-carbamoyl)-(3-hydroxybut-1-yl)}] | 360 | 440 | – | –
CC(O)C(COP(=O)(O)OC(C)C(COP(=O)(O)OC(C)C(CO)NC(=O)c1c2ccccc2nc2ccccc12)NC(=O)c1c2ccccc2nc2c1[nH]c1ccccc12)NC(=O)Cn1c2nc3ccccc3c-2cc2ccccc21 (centres unmarked) [Example 45, O-{2-N-(Acridine-9-carbamoyl)-(1-hydroxybut-3-yl)} phosphate (3-1) O-{2-N-(10H-indolo[3,2-d]quinoline-11-carbamoyl)-3-oxybut-1-yl} phosphate (3-1) O-{2-N-(5H-indolo[2,3-b]quinolin-5-yl)acetamido-3-hydroxybut-1-yl)] | 271 | 449 | – | –
CC(=O)NCCN(CC(=O)NCCN(CC(=O)NCCCCCCO)C(=O)CNC(=O)c1c2ccccc2nc2ccccc12)C(=O)CNC(=O)c1c2ccccc2nc2ccccc12 [Example 46] | 248 | 441 | – | –
CC(=O)NCCN(CC(=O)NCCN(CC(=O)NCCN(CC(=O)NCCCCCCO)C(=O)CNC(=O)c1c2ccccc2nc2ccccc12)C(=O)CNC(=O)c1c2ccccc2nc2ccccc12)C(=O)CNC(=O)c1c2ccccc2nc2ccccc12 [Example 47] | 360 | 436 | – | –
CC(=O)NC1CC(C(N)=O)N(C(=O)CNC(=O)c2c3ccccc3nc3ccccc23)C1 (centres unmarked) [Example 50, N-[2-(Acridine-9-carboxamide)acetyl]-4-N-acetamidoprolinamide] | 282 | 439 | – | –
CC(=O)NC1CC(C(N)=O)N(C(=O)CNC(=O)c2c3ccccc3nc3c2[nH]c2ccccc23)C1 (centres unmarked) [Example 51, N-{2-(10H-indolo[3,2-b]quinoline-11-carboxamide)acetyl}-4-N-acetamidoprolinamide] | 347 | 502 | – | –
CC(=O)N1CC(NC(=O)CNC(=O)c2c3ccccc3nc3ccccc23)C[C@H]1C(=O)N1CC(NC(=O)CNC(=O)c2c3ccccc3nc3ccccc23)C[C@H]1C(N)=O (some centres unmarked) [Example 52, N^4-Acetyl-4-amino-{2-(acridine-9-carboxamide)acetyl}prolinyl-4-amino-{2-(acridine-9-carboxamide)acetyl}prolinamide] | 274 | 450 | – | –
CC(=O)N1CC(NC(=O)CNC(=O)c2c3ccccc3nc3c2[nH]c2ccccc23)C[C@H]1C(=O)N1CC(NC(=O)CNC(=O)c2c3ccccc3nc3c2[nH]c2ccccc23)C[C@H]1C(N)=O (some centres unmarked) [Example 53, N^4-Acetyl-4-amino-{2-(10H-indolo[3,2-b]quinoline-11-carboxamide)acetyl}prolinyl-4-amino-{2-(10H-indolo[3,2-b]quinoline-11-carboxamide)acetyl}prolinamide] | 348 | – | – | –
CC(=O)NC1CC(C(=O)NC2CC(C(N)=O)N(C(=O)CNC(=O)c3c4ccccc4nc4ccccc34)C2)N(C(=O)CNC(=O)c2c3ccccc3nc3c2[nH]c2ccccc23)C1 (centres unmarked) [Example 54, 10H-Indolo[3,2-b]quinoline-11-carboxylic acid {2-[4-acetylamino-2-(1-{2-[(acridine-9-carbonyl)-amino]-acetyl}-5-carbamoyl-pyrrolidin-3-ylcarbamoyl)-pyrrolidin-1-yl]-2-oxo-ethyl}-amide] | 273 | 498 | – | –
